Measurements from patent US20240255419A1, “MOLECULAR PROBES FOR MAPPING BIOLOGICAL ACTIVITY” (Trustees of Boston University, priority 2023, published 2024).
Each block holds one molecule with its values, some of them ahead of it.

Key:
SJSA-1 cells = assay: induction of apoptosis for activating caspase-3/7; type: cell-based
From the text: Other than phosphatase, we profiled caspase-3/7 activity in live cancer cells.

[1] = test system: alkaline phosphatase (ALP); conditions: standard substrate, identical conditions
ATP synthetase = assay: cellular uptake mechanism, NBD fluorescence of NBD-Phos-CN(S); type: cell-based; conditions: 5 μM inhibitor, cells with NBD-Phos-CN(S)
From the text: Considering the high sensitivity and resistance to photobleaching, we conducted real-time monitoring of dephosphorylation reaction in cells by MIP imaging as Phos-CN(S) is introduced to the cells. […] The Nanoparticles formed by the amphiphilic nitrile chameleons may escape from endosomes through endosomal membrane disruption or perforation. The variation in phosphatase activity patterns at different time points is attributed to the dynamic movements of cellular structures within live cells. As previously discussed, the nanofilaments intertwine with cellular structures, causing the nanofilaments to move along with these structures. Furthermore, we utilized NBD-Phos-CN(S) to study the cellular uptake mechanism of nitrile chameleons because NBD fluorescence cannot distinguish between substrate and product.

caspase-3 (active) = target: T1, caspase-3 (active) (Homo sapiens, UniProt P42574); assay: enzymatic conversion efficiency by caspase-3 (active), time-course of product formation; type: biochemical; conditions: standard substrate, identical conditions
T1 sequence (P42574 29-175 limits assumed): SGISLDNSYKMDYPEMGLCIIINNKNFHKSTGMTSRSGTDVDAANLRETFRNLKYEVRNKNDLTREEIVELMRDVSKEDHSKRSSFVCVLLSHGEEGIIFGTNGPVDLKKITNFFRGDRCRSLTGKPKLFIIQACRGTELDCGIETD
T1 sequence (P42574 176-277 limits assumed): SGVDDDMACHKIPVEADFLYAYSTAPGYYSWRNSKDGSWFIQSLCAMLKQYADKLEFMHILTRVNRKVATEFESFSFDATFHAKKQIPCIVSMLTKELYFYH

Molecule: COc1cccc2c1C(=O)c1c(O)c3c(c(O)c1C2=O)C[C@@](O)(C(=O)CO)C[C@@H]3O[C@H]1C[C@H](N)[C@H](O)[C@H](C)O1 [Doxorubicin]
- apoptosis induction (SJSA-1 cells): efficiently induces apoptosis

Molecule: O=[N+]([O-])c1ccc(OP(=O)(O)O)cc1 [P-nitrophenyl phosphate]
- initial speed (v0) [1]: 0.53 nmol/min

Molecule: CC[C@H]1/C=C/C=C/C[C@@H](C)[C@H](O)[C@@](C)(O)C(=O)[C@@H](C)[C@H](O)[C@@H](C)C(=O)[C@@H](C)[C@H](O)[C@@H](C)/C=C/C(=O)O[C@@H]2[C@H](C)[C@H](CC1)O[C@]1(CC[C@H](C)[C@H](C[C@@H](C)O)O1)[C@H]2C [oligomycin]
- NBD fluorescence inside the cells (ATP synthetase): significantly reduced

- initial speed (v0) (caspase-3 (active)): 0.33 nmol/min
Molecule: Ac-DEVD-pNA
